Data published in ChEMBL document CHEMBL1129232, “Synthesis and anti-HIV activity of dihydroisoxazole 6-chloropurine and adenine” (Bioorg Med Chem Lett, 1996).

Key:
[1] = system: CCRF-CEM; assay: Compound was evaluated for cytotoxicity against CEM cells; type: functional, cell-based, Homo sapiens
[2] = Median effective dose required for anti HIV-1 activity in PBM cells(Human lymphocytes); type: functional, cell-based; conditions: PBMC
[3] = system: Vero; assay: Compound was evaluated for cytotoxicity against Vero cells; type: functional, cell-based; conditions: Chlorocebus sabaeus
[4] = Compound was evaluated for cytotoxicity against human lymphocytes (PBM cells); type: functional, cell-based; conditions: PBMC

| SMILES | IC50 ([1]; Homo sapiens, CCRF-CEM) | EC50 [2] | IC50 [3] | IC50 [4] | IC50 ([1]; ccrf-cem) |
| --- | --- | --- | --- | --- | --- |
| OCC1=NOC(n2cnc3c(Cl)ncnc32)C1 (stereo unspecified) | 35.2 µM | 34.6 µM | > 100 µM | 73.5 µM |  |
| Nc1ncnc2c1ncn2C1CC(CO)=NO1 (stereo unspecified) | > 100 µM | 54.8 µM | > 100 µM | > 100 µM |  |
| Cc1cn([C@H]2C[C@H](N=[N+]=[N-])[C@@H](CO)O2)c(=O)[nH]c1=O [ZIDOVUDINE] |  | 0.004 µM |  | > 100 µM | 14 µM |
